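Following 48 hours of exposure in 96-well plates, responses at five concentrations were used to interpolate endpoints linearly. Definition used: TGI = concentration required for complete inhibition of growth.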
Tests used:
Experiment in all cases: NCI tumour cell line growth inhibition, 48 h
[1] = system: DMS 114 small cell lung
[2] = system: EKVX NSCLC
[3] = system: KM20L2 colon
[4] = system: DLD-1 colon
[5] = system: TK-10 renal
[6] = system: SW-620 colon
[7] = system: LOX IMVI melanoma
[8] = system: UACC-257 melanoma
[9] = system: LXFL 529 NSCLC
[10] = system: M19-MEL melanoma
[11] = system: T-47D breast
[12] = system: SNB-75 CNS
[13] = system: HS 578T breast
[14] = system: SNB-19 CNS
[15] = system: NCI/ADR-RES ovarian
[16] = system: MCF7 breast
[17] = system: MDA-MB-435
[18] = system: PC-3 prostate
[19] = system: DU-145 prostate

Measured: TGI

Nc1c(-c2ccccc2[N+](=O)[O-])nc2ccccn12
> 100 µM: [1] | [2] | [3] | [4] | [5] | [6] | [7] | [8] | [9] | [10]

CCOC(=O)CCC(NC(=O)OCc1ccccc1)C(=O)NC(CCC(=O)OCC)C(=O)NNC(=O)OC(C)(C)C (centres undefined)
> 100 µM: [11] | [12] | [13] | [14] | [15] | [16] | [17] | [18] | [19]

Reference: PubChem BioAssay (NCI)
